In ChEMBL document CHEMBL1201862, “PubChem BioAssay data set” (2004):
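Each compound was tested at five concentrations against cells in 96-well plates for 48 hours. GI50 marks 50% less growth.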 The source made the active and inactive calls. No stated cut-off is given here; in the data, active = GI50 up to about 1.1 µM and inactive = higher.

Key:
Test in all cases: NCI tumour cell line growth inhibition, 48 h
[1] = system: BT-549
[2] = system: CCRF-CEM
[3] = system: HCT-15
[4] = system: HOP-62
[5] = system: MOLT-4
[6] = system: NCI-H226
[7] = system: NCI-H23
[8] = system: OVCAR-8
[9] = system: SF-268
[10] = system: SF-295
[11] = system: SF-539
[12] = system: SK-MEL-5
[13] = system: SK-OV-3
[14] = system: SNB-19
[15] = system: T47D
[16] = system: TK-10
[17] = system: UACC-257
[18] = system: UACC-62
[19] = system: HT-29
[20] = system: HL-60

SMILES	GI50 [1]	GI50 [2]	GI50 [3]	GI50 [4]	GI50 [5]	GI50 [6]	GI50 [7]	GI50 [8]	GI50 [9]	GI50 [10]	GI50 [11]	GI50 [12]	GI50 [13]	GI50 [14]	GI50 [15]	GI50 [16]	GI50 [17]	GI50 [18]	GI50 [19]	GI50 [20]
O=C(c1cscc1CCc1ccccc1)c1cscc1CCc1ccccc1	> 100 µM (inactive)	> 100 µM (inactive)	> 100 µM	> 100 µM (inactive)	> 100 µM (inactive)	> 100 µM (inactive)	> 100 µM (inactive)	> 100 µM (inactive)	> 100 µM (inactive)	> 100 µM (inactive)	> 100 µM (inactive)	> 100 µM (inactive)	> 100 µM (inactive)	> 100 µM (inactive)	11.6 µM (inactive)	> 100 µM (inactive)	> 100 µM (inactive)	> 100 µM (inactive)		
CCOC(=O)COc1cc(-c2ccccc2)nc2cc(F)ccc12	> 100 µM (inactive)	85.7 µM (inactive)	> 100 µM	> 100 µM (inactive)	> 100 µM (inactive)	> 100 µM (inactive)	> 100 µM (inactive)	> 100 µM (inactive)	> 100 µM (inactive)	> 100 µM (inactive)	39.7 µM (inactive)	> 100 µM (inactive)	> 100 µM (inactive)		> 100 µM (inactive)	> 100 µM (inactive)	> 100 µM (inactive)	> 100 µM (inactive)	> 100 µM (inactive)	
C/C=C(/C)c1cnc(CC(C)C)c(=O)[nH]1	> 100 µM (inactive)	> 100 µM (inactive)	> 100 µM	> 100 µM (inactive)	> 100 µM (inactive)		> 100 µM (inactive)	> 100 µM (inactive)	> 100 µM (inactive)	> 100 µM (inactive)		> 100 µM (inactive)	> 100 µM (inactive)	> 100 µM (inactive)	> 100 µM (inactive)	> 100 µM (inactive)	> 100 µM (inactive)	> 100 µM (inactive)	> 100 µM (inactive)	
COC(=O)[C@]1(C)CCC[C@@]2(C)C1CC[C@]13C=C(C(C)C)[C@H](CC21)CC3(Cl)C#N (some centres not stated)	35.6 µM (inactive)	20.7 µM (inactive)	44.7 µM	36.3 µM (inactive)	20 µM (inactive)	22.8 µM (inactive)	59.8 µM (inactive)	45.9 µM (inactive)	46.3 µM (inactive)	41.4 µM (inactive)	78 µM (inactive)	37.8 µM (inactive)	> 100 µM (inactive)	> 100 µM (inactive)	14.1 µM (inactive)	> 100 µM (inactive)	27.7 µM (inactive)	37.7 µM (inactive)	27.4 µM (inactive)	
O=Cc1ccc(-c2ccc(-c3ccc(C=O)s3)o2)s1	77.3 µM (inactive)	> 43.6 µM (inactive)	61.5 µM	8.63 µM (inactive)	> 75.7 µM (inactive)	0.656 µM (active)	> 100 µM (inactive)	> 100 µM (inactive)	> 100 µM (inactive)	> 77.3 µM (inactive)	> 82.4 µM (inactive)	> 87.7 µM (inactive)	> 97.3 µM (inactive)	> 88.1 µM (inactive)		1.46 µM (inactive)	2.61 µM (inactive)	0.108 µM (active)	> 96.2 µM (inactive)	> 100 µM (inactive)
COc1ccc(-n2c3c(c4cc(O)ccc42)C(=O)c2ccccc2C3=O)cc1	11.2 µM (inactive)		> 100 µM	2.26 µM (inactive)	7.66 µM (inactive)		8.97 µM (inactive)	2.52 µM (inactive)	2.14 µM (inactive)	2.86 µM (inactive)	1.05 µM (active)	2.73 µM (inactive)	0.404 µM (active)	6.65 µM (inactive)	8.24 µM (inactive)	8.55 µM (inactive)	> 100 µM (inactive)	3.5 µM (inactive)	3.94 µM (inactive)	15 µM (inactive)
COc1cccc(C2SC(=N)Nc3c2c(C)nn3C(=O)c2ccccc2O)c1 (configuration not stated)	> 10 µM (inactive)	> 3.21 µM (inactive)	> 5.7 µM	> 7.1 µM (inactive)	> 2.44 µM (inactive)	> 2.56 µM (inactive)		> 2.76 µM (inactive)	> 4.32 µM (inactive)	3.2 µM (inactive)		> 6.53 µM (inactive)	> 7.5 µM (inactive)	> 10 µM (inactive)	> 7.03 µM (inactive)	> 2.78 µM (inactive)	2.68 µM (inactive)	1.76 µM (inactive)	> 6.17 µM (inactive)	
Clc1cccc(Cl)c1C1SCC2=Nc3ccccc3CN21 (configuration not stated)	66.4 µM (inactive)	32.4 µM (inactive)	32 µM	19.5 µM (inactive)	31.3 µM (inactive)		14.6 µM (inactive)		39.9 µM (inactive)	13.2 µM (inactive)	16.2 µM (inactive)	15.8 µM (inactive)	20.6 µM (inactive)	5.18 µM (inactive)	21.4 µM (inactive)	> 100 µM (inactive)	34.7 µM (inactive)	27.4 µM (inactive)		21.7 µM (inactive)
Cc1ccc(-c2c(C#N)c(-c3ccc(Cl)cc3)c(C#N)c(=O)n2NS(=O)(=O)c2ccccc2)cc1	34.4 µM (inactive)	34.4 µM (inactive)	51.6 µM	23.4 µM (inactive)	55.2 µM (inactive)	77.3 µM (inactive)		76.4 µM (inactive)	67 µM (inactive)	60.8 µM (inactive)	44.9 µM (inactive)	31.9 µM (inactive)	> 100 µM (inactive)	80.7 µM (inactive)		74.3 µM (inactive)	> 100 µM (inactive)	58.6 µM (inactive)	> 100 µM (inactive)	73.1 µM (inactive)
CC(CCOc1c2ccoc2cc2oc(=O)ccc12)C1=CC(=O)C(C)(C)O1 (configuration not stated)	71 µM (inactive)	> 100 µM (inactive)	> 100 µM	> 100 µM (inactive)	> 100 µM (inactive)	> 100 µM (inactive)	> 100 µM (inactive)	> 100 µM (inactive)	> 100 µM (inactive)	> 100 µM (inactive)	> 100 µM (inactive)	> 100 µM (inactive)	> 100 µM (inactive)	> 100 µM (inactive)		> 100 µM (inactive)	> 100 µM (inactive)	> 100 µM (inactive)	> 100 µM (inactive)	> 100 µM (inactive)
C[C@@H]1OC(=O)C[C@H]2CC(=O)N(CCC3CN(C(=O)OCc4ccccc4)c4ccccc43)C[C@@H]21 (some centres not stated)	> 100 µM (inactive)		> 100 µM	> 100 µM (inactive)	> 100 µM (inactive)		> 100 µM (inactive)	> 100 µM (inactive)	> 100 µM (inactive)	> 100 µM (inactive)		> 100 µM (inactive)	> 100 µM (inactive)	> 100 µM (inactive)	> 100 µM (inactive)	> 100 µM (inactive)	> 100 µM (inactive)	> 100 µM (inactive)	> 100 µM (inactive)	
N=C(N)NC(CC(=O)O)c1ccccc1 (configuration not stated)	> 100 µM (inactive)		> 100 µM	> 100 µM (inactive)			> 100 µM (inactive)	> 100 µM (inactive)	> 100 µM (inactive)	> 100 µM (inactive)	> 100 µM (inactive)	> 100 µM (inactive)	> 100 µM (inactive)	> 100 µM (inactive)	> 100 µM (inactive)	> 100 µM (inactive)	> 100 µM (inactive)	> 100 µM (inactive)	> 100 µM (inactive)	
